One experiment concerns the target T1, PBP2a (Staphylococcus aureus, UniProt P07944).
T1 construct: The truncated PBP2a gene (Roychoudhury et al., J. Biol. Chem. 269:112067-12073, 1994) (cleaved yes); made in house; host or cells: E. coli BL21(DE3)
As to the kind of experiment: biochemical. In kind it is biochemical.

Experiment [1] addresses penicillin-binding protein 2a (PBP2a), truncated, recombinant from E. coli (Staphylococcus aureus (methicillin-resistant, MRSA)) (UniProt P07944). Briefly: relative IC50: competition with biotinylated ampicillin for PBP2a.
For experiment [2] the target is unchanged. As to the kind of experiment: relative IC50: competition with biotinylated ampicillin for PBP2a, SDS-PAGE and streptavidin-HRP blot.

Read-outs that look alike come from different tables or passages of the source. Peptide text beside a SMILES is read from it. * marks the point of attachment. X1 = CC1(C)S[C@@H]2[C@H](NC(=O)C*)C(=O)N2[C@H]1C(=O)O

A word on the IC50: it is the concentration at which inhibition is half-maximal. As to `CC[C@H](C)[C@H](NC(=O)[C@H](CSCC(=O)N[C@@H]1C(=O)N2[C@@H]1SC(C)(C)[C@@H]2C(=O)O)NC(=O)[C@H](CC(N)=O)NC(=O)[C@H](CO)NC(=O)[C@H](CC(N)=O)NC(=O)[C@H](CCCNC(=N)N)NC(=O)[C@@H](N)CC(C)C)C(=O)N[C@@H](CCCNC(=N)N)C(=O)N[C@@H](Cc1c[nH]cn1)C(=O)N[C@@H](Cc1ccccc1)C(=O)N[C@@H](Cc1ccccc1)C(=O)O` [LRNSNC(pen)IRHFF] (H-LRNSNC(X1)IRHFF-OH), the IC50 on PBP2a (2 μg pure PBP2a, conjugate 15 min at 37° C., then 20 μg biotinylated ampicillin 10 min, read-out: relative IC50) is approximately 7 mM. Further, at PBP2a (as compared), the “improvement of PBP2a inhibition over the parent penam” value is recorded as “about 100 fold”.

For “LRNSNC(pen)IRHFF (residues 2-12 of SEQ ID NO: 5), synthetic peptide penicillanate conjugate”, in experiment [1], the fold improvement compared to 6-aminopenicillanic acid was determined as 100 fold.

On to “LRNSNC(COOH)IRHFF (residues 2-12 of SEQ ID NO: 5), peptide derivatized with bromoacetic acid”, for which the IC50 in experiment [2] was more than 35 mM.

For `CO/N=C(\C(=O)N[C@@H]1C(=O)N2C(C(=O)O)=C(COC(C)=O)CS[C@H]12)c1csc(N)n1` [cefotaxime, reference compound], the half-maximal inhibitory concentration (IC50) on PBP2a turned out to be 2.9 mM.
